# Like-named read-outs stand apart in the source and are kept apart here.
# Key:
# [1] = tested on: urease; assay type: biochemical
# [2] = tested on: urease; assay: Longevity of urea protection by urease inhibitor; details: ~0.1% NBPT; according to the literature and own studies
# Excerpt: Urea can only benefit plants as an aqueous solution, so the protecting urease inhibitor NBPT must be also dissolved and spread along with urea.
# [3] = ammonia after 1 week, NBPT (PG, 26.70%, 8 mg) alone or oxidant added per stated mg of NBPT
# [4] = ammonia after 3 days, NBPT (PG, 26.70%, 8 mg) alone or oxidant added per stated mg of NBPT
structure (smiles),measurement,setting,value
"OO [Hydrogen Peroxide, 10%, Hydrogen Peroxide]","Urease Inhibitor Test with additional oxidant components (ammonia ppm), 1 week",[1],400 ppm
same,"Urease Inhibitor Test with additional oxidant components (ammonia ppm), 3 days",[1],0.1 ppm
"CCCCNP(N)(N)=S [NBPT, N-(n-Butyl)thiophosphoric triamide, reference compound]",longevity of urea protection,[2],around one week
same,"Urease Inhibitor Test with additional oxidant components (ammonia ppm), 1 week",[1]; [3],800 ppm
same,"Urease Inhibitor Test (ammonia ppm), 1 week","[1]; ammonia after 1 week, treatment + about 5.0 g urea in 10 mL water on 60 g soil, sealed",35 ppm
same,"Urease Inhibitor Test (ammonia ppm), 2 weeks","[1]; ammonia after 2 weeks, treatment + about 5.0 g urea in 10 mL water on 60 g soil, sealed",600 ppm
same,"Urease Inhibitor Test with additional oxidant components (ammonia ppm), 3 days",[1]; [4],5 ppm
same,"Urease Inhibitor Test (ammonia ppm), 3 days","[1]; ammonia after 3 days, treatment + about 5.0 g urea in 10 mL water on 60 g soil, sealed",13 ppm
"CCCCNP(N)(N)=O [NBPTO, oxidized N-(n-Butyl)thiophosphoric triamide]","Urease Inhibitor Test (ammonia ppm), 1 week",[1],0.6 ppm
same,"Urease Inhibitor Test (ammonia ppm), 2 weeks",[1],1 ppm
same,"Urease Inhibitor Test (ammonia ppm), 3 weeks",[1],5 ppm
same,"Urease Inhibitor Test (ammonia ppm), 3 days",[1],0.05 ppm
same,urease inhibition increase in comparison with NBPT,[1],up to eight-fold urease inhibition increase
O=S(=O)([O-])OOS(=O)(=O)[O-].[K+].[K+] [Potassium Persulfate],"Urease Inhibitor Test with additional oxidant components (ammonia ppm), 1 week",[1]; [3],140 ppm
same,"Urease Inhibitor Test with additional oxidant components (ammonia ppm), 3 days",[1]; [4],1 ppm

# Reference: patent publication US20240368050A1, “ENHANCED PERFORMANCE UREASE INHIBITOR, COMPOSITIONS AND METHODS THEREOF” (priority 2023, published 2024)
